The values that follow come from US20250144049A1, “METHODS, COMPOSITIONS, AND USES RELATED TO THE TREATMENT AND PREVENTION OF LEIGH SYNDROME” (Stealth BioTherapeutics Inc., priority 2023, published 2025).

The structures appear in SMILES notation.

Series [1] can be described thus: Compound 4 pharmacokinetics and tissue exposure after five daily subcutaneous doses. In kind it is in vivo, C57BL/6 mice. The method, then: Study design details: • Animals were allowed to acclimate to the test facility for at least two days prior to the beginning of the study. • Study animals were male C57BL/6 mice weighing approximately 18-25 grams each. • Fasting was not required for the study. • Body weights were recorded prior to dose administration. The volume of each dose delivered (mL/kg) was based on each individual animal's body weight. • This was a multiple dose serial PK dosed subcutaneously once daily over 5 days. Compound 4 was administered to two groups: Group 1 at 60 mg/kg and Group 2 at 180 mg/kg (6 and 18 mg/mL, 15% Kolliphor ELP in PBS, 10 mL/kg; N=3/group). Serial PK timepoints were collected following the 5th and final dose.
Sample collection details: • Serial blood samples were collected via tail vein snip. • Blood samples were collected into tubes with anticoagulant. Tubes were stored on wet ice until processed to plasma by centrifugation (3500 rpm at 5° C. for 10 minutes) within 20 minutes of collection. Sample aliquots of 20 μL were transferred into individual uniquely labeled matrix tubes and stored at nominal −80° C. until transferred to analytical chemistry for analysis. • Immediately following each terminal blood collection for all groups, animals were sacrificed and perfused with cold PBS. Heart and brain tissues were collected. • Perfusion methodology: The chest was opened lengthwise using scissors to expose the thoracic organs. A scalpel was used to cut a small hole into the left ventricle just large enough to insert a cannula tip. The cannula was attached to an appropriately sized tubing and syringe prefilled with cold PBS and primed to remove any air. The tip of the cannula was inserted into the left ventricle and directed into the ascending aorta. Hemostats were used to help keep the cannula in place during perfusion. A second hole was made in the right atrium to allow for the escape of fluid during the return circulation. The syringe attached to the cannula was manually pushed or placed into a pump programmed to infuse at 10 mL/min. Animals were perfused for a minimum of 3 minutes or more if needed (until the exiting fluid was clear).
• N=3/group; • Collections relative to the final dose: • Plasma: 60 mg/kg at 2 and 24 hr, 180 mg/kg at predose, 2, 8, and 24 hr • Heart and Brain: 24 hr (terminal, PBS-perfused); • RGA 2 bioanalysis.
• N=3/timepoint; • Collections relative to the final dose: • Plasma: 0.5, 2, 8, and 24 hr (terminal) • Heart and Brain: 0.5, 2, 8, and 24 hr (terminal, PBS-perfused) • RGA 2 bioanalysis.

Series [2] concerns Ndufs4-KO mouse model of Leigh syndrome. Kind of series: Survival study in Ndufs4-KO mouse model of Leigh syndrome. Format: in vivo. The conditions noted are these: Ndufs4-KO mice. The method, then:
Study design. A survival study was performed to test Compound 4 in a whole body (WB)-Ndufs4-KO mouse model of Leigh syndrome (B6.129S4-Ndufs4^tm1.1Rpa/J; JAX Stock #027058; “Ndufs4-KO mice”). Defects in the non-enzymatic, nuclear-encoded protein, NDUFS4 (NADH dehydrogenase (ubiquinone) Fe—S protein 4), cause a Leigh-like phenotype in humans that results in death within 3-16 months after birth. Exon 2 of the mouse Ndufs4 gene has been excised in this knockout allele. Three groups of mice were included in this study: (1) wild-type (WT) C57BL/6J mice (n=12), each receiving 20 mg/kg Compound 4 subcutaneously once per day starting at postnatal age 21 days (P21); (2) Ndufs4-KO mice (homozygous knock outs (“HOM”)) (“HOM Vehicle”) (n=9), each receiving vehicle (5% Kolliphor-ELP in 1×PBS at a dosage of 10 mL/kg/day) subcutaneously once per day starting at P21; and (3) Ndufs4-KO mice (“HOM Comp. 4, 20 mg/kg”) (n=13), each receiving 20 mg/kg Compound 4 subcutaneously per day starting at P21. All studies were performed under the approved IACUC protocol at Jackson Laboratories (Bar Harbor, ME). The mice were sacrificed and necropsied upon reaching a humane endpoint as determined by body conditioning and neurological scoring method developed by Jackson Laboratory for this animal model. Terminal plasma was collected via cardiocentesis post euthanasia for future analysis.
Statistical analysis. Kaplan Meier plot followed by chi squared test were performed using GraphPad Prism version 10.0.0, GraphPad Software (Boston, Massachusetts) (www.graphpad.com).

Where [3] appears, read: male, C57BL/6, mouse, in vivo, sc, 60 mg/kg.

Compound `CC1=C(C)C(=O)C(CC[C@](C)(O)CCCCCCCCC(F)(F)F)=C(C)C1=O` [Compound 4] yielded a time to steady-state in series [1] (male, C57BL/6, mouse, in vivo, sc) of at most 5 days. In series [1] (setting [3]), this compound returned an AUClast/Dose of 257 kg·ng·h/mL/mg and a Cmax/Dose of 24.0 kg·ng/mL/mg. For the same compound, the AUClast/Dose in series [1] (male, C57BL/6, mouse, in vivo, sc, 180 mg/kg) was 273 kg·ng·h/mL/mg. In series [1] (male, C57BL/6, mouse, in vivo, sc, 180 mg/kg, 24 h), this compound gave a C24/Dose of 1.48 kg·ng/mL/mg. The “concentrations in heart versus brain” value in series [1] (mouse tissue after 5 days) is “Similar”. Further, the “C24 (trough) tissue exposure versus dose” value in series [1] (mouse, in vivo) is “approximately proportional to dose”. In series [2] (20 mg/kg SC daily from P21), the “effect on survival, Gehan Breslow-Wilcoxon test P” value is listed as below 0.0001 and the “effect on survival, logrank test P” value is below 0.0001. Further, the survival entry in series [2] (20 mg/kg SC once per day from P21, vs vehicle, FIG. 23) was “significantly improved survival”.
